Where a name gives a salt, the structure may show the parent alone.
Biological target: recombinant human PAI-1 (Homo sapiens, UniProt P05121)
Test: Test Example 1: human PAI-1 inhibitory activity (tPA fluorogenic substrate, pH7.5 Tris buffer)
Assay type: biochemical
Design: purchased Molecular Innovations, Inc
Details: for Inhibition Rate of Human PAI-1 Activity (%): Tris buffer pH7.5
[1] = pH 7.5, read-out: Inhibition Rate of Human PAI-1 Activity (%)

recombinant human PAI-1, sequence (P05121 24-402): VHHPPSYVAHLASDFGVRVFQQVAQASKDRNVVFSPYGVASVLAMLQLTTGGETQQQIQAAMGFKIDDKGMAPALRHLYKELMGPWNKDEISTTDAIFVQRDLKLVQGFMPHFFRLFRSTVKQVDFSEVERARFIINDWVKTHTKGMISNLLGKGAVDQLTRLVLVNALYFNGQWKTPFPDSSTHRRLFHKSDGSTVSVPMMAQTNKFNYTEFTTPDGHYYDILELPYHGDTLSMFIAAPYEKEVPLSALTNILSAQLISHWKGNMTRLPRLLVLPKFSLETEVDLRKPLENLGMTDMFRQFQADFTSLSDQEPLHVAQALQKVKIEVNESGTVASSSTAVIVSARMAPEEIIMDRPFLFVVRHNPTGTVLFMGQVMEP
Description: In a 96-well multiplate (black), 1.5 μl of DMSO solution of the present application compound prepared to achieve 80-fold the test concentration (=the final concentration when fluorogenic substrate is added) was diluted with 52.5 μl of pH7.5 Tris buffer. […] Furthermore, 30 μl of 800 IU/ml two-chain tPA (Activity Standard; American diagnostics, inc.) prepared by Tris buffer was added, and the mixed solution was incubated for 15 minutes at room temperature. To this, 30 μl of 400 μM fluorogenic substrate (Pyr-Gly-Arg-MCA; Peptide Institute, Inc.) for tPA prepared by Tris buffer was added and reacted for 30 minutes at room temperature.
<Composition of pH7.5 Tris Buffer)

Inhibition Rate of Human PAI-1 Activity (%) (compound 5 μM)	Inhibition Rate of Human PAI-1 Activity (%) (compound 10 μM)	Inhibition Rate of Human PAI-1 Activity (%) (compound 25 μM)	Structure (SMILES)	inhibition at 5 µM [1] [%]	inhibition at 10 µM [1] [%]
18	31		O=C(O)Cc1cc(-c2ccc(OC(F)(F)F)cc2)ccc1OCc1ccccc1 [Compound 1, [4-benzyloxy-4′-(trifluoromethoxy)biphenyl-3-yl]acetic acid]		
			O=C(O)/C=C/c1cc(-c2ccc(OC(F)(F)F)cc2)ccc1OCc1ccccc1 [Compound 2, (E)-3-[4-benzyloxy-4′-(trifluoromethoxy)biphenyl-3-yl]propenoic acid]	35	31
35	68		O=C(O)CCc1cc(-c2ccc(OC(F)(F)F)cc2)ccc1OCc1ccccc1 [Compound 3, 3-[4-benzyloxy-4′-(trifluoromethoxy)biphenyl-3-yl]propanoic acid]		
84	78		CC(C)(C)c1ccc(COc2ccc(-c3ccc(OC(F)(F)F)cc3)cc2/C=C/C(=O)O)cc1 [Compound 4, (E)-3-{4-[4-(tert-butyl)benzyloxy]-4′-(trifluoromethoxy)biphenyl-3-yl}propenoic acid]		
83	94		CC(C)(C)c1ccc(COc2ccc(-c3ccc(OC(F)(F)F)cc3)cc2NC(=O)C(=O)O)cc1 [Compound 6, N-{4-[4-(tert-butyl)benzyloxy]-4′-(trifluoromethoxy)biphenyl-3-yl}oxamic acid sodium salt]		
92	94		CC(C)(C)c1ccc(Oc2ccc(-c3ccc(OC(F)(F)F)cc3)cc2/C=C\C(=O)O)cc1 [Compound 12, (Z)-3-{4-[4-(tert-butyl)phenoxy]-4′-(trifluoromethoxy)biphenyl-3-yl}propenoic acid]		
	3		O=C(O)CCc1cc(-c2ccc(OC(F)(F)F)cc2)ccc1Oc1ccc(C(=O)O)cc1 [Compound 15, 3-[4-(4-carboxyphenoxy)-4′-(trifluoromethoxy)biphenyl-3-yl]propanoic acid]		
37	67	97	CN(C(=O)C(=O)O)c1cc(-c2ccc(OC(F)(F)F)cc2)ccc1OCc1ccc(C(C)(C)C)cc1 [Compound 18, N-{4-[4-(tert-butyl)benzyloxy]-4′-(trifluoromethoxy)biphenyl-3-yl}-N-methyloxamic acid]		
	13	80	O=C(O)CCc1cc(-c2ccc(OC(F)(F)F)cc2)ccc1OCc1ccc(C(F)(F)F)cc1 [Compound 26, 3-{4′-(trifluoromethoxy)-4-[4-(trifluoromethyl)benzyloxy]biphenyl-3-yl}propanoic acid]		
	7	47	COc1ccccc1COc1ccc(-c2ccc(OC(F)(F)F)cc2)cc1CCC(=O)O [Compound 28, 3-[4-(2-methoxybenzyloxy)-4′-(trifluoromethoxy)biphenyl-3-yl]propanoic acid]		
	11	64	O=C(O)/C=C\c1cc(-c2ccc(OC(F)(F)F)cc2)ccc1OCc1ccccc1 [Compound 29, (Z)-3-[4-benzyloxy-4′-(trifluoromethoxy)biphenyl-3-yl]propenoic acid]		
96	97	93	CC(C)(C)c1ccc(COc2ccc(-c3ccc(OC(F)(F)F)cc3)cc2/C=C\C(=O)O)cc1 [Compound 30, (Z)-3-{4-[4-(tert-butyl)benzyloxy]-4′-(trifluoromethoxy)biphenyl-3-yl}propenoic acid]		
	9	25	CC(C)(C)c1ccc(COc2ccc(-c3cccc(C(=O)O)c3)cc2CCC(=O)O)cc1 [Compound 31, 3-{4-[4-(tert-butyl)benzyloxy]-3′-carboxybiphenyl-3-yl}propanoic acid]		
